Reference: ChEMBL document CHEMBL3272020, “Synthesis, antimalarial activity, and phototoxicity of some benzo(h)quinoline-4-methanols” (J Med Chem, 1976)
Activity calls are given as the source filed them. The calls are words filed in the database; no cut-off is given here.

Legend:
[1] = system: Mus musculus; assay: Phototoxicity in ip dosed mouse; format: organism-based; conditions: in vivo
[2] = system: Mus musculus; assay: Toxicity in mouse infected with Plasmodium berghei assessed as animal death at 640 mg/kg, sc; format: organism-based; set-up: dose 640 mg/kg, route subcutaneous; conditions: in vivo
[3] = system: Plasmodium berghei; assay: Antimalarial activity against Plasmodium berghei infected in mouse assessed as disease cure by measuring host survival for 60 days at 640 mg/kg, sc; format: functional, organism-based; set-up: dose 640 mg/kg
[4] = system: Plasmodium berghei; assay: Antimalarial activity against Plasmodium berghei infected in mouse assessed as change in mean survival time at 320 mg/kg, sc; format: functional; conditions: route subcutaneous
[5] = system: Plasmodium berghei; assay: Antimalarial activity against Plasmodium berghei infected in mouse assessed as change in mean survival time at 160 mg/kg, sc; format: functional; conditions: route subcutaneous
[6] = system: Plasmodium berghei; assay: Antimalarial activity against Plasmodium berghei infected in mouse assessed as change in mean survival time at 640 mg/kg, sc; format: functional; conditions: route subcutaneous
[7] = system: Plasmodium berghei; assay: Antimalarial activity against Plasmodium berghei infected in mouse assessed as disease cure by measuring host survival for 60 days at 320 mg/kg, sc; format: functional, organism-based; set-up: dose 320 mg/kg
[8] = system: Plasmodium berghei; assay: Antimalarial activity against Plasmodium berghei infected in mouse assessed as disease cure by measuring host survival for 60 days at 160 mg/kg, sc; format: functional, organism-based; set-up: dose 160 mg/kg
[9] = system: Mus musculus; assay: Toxicity in mouse infected with Plasmodium berghei assessed as animal death at 320 mg/kg, sc; format: organism-based; set-up: dose 320 mg/kg, route subcutaneous; conditions: in vivo

Row | Compound | MED [1] | Activity [2] | Activity [3] | MST [4] [days] | MST [5] [days] | MST [6] [days] | Activity [7] | Activity [8] | Activity [9]
1 | CCCCN(CCCC)CC(O)c1c(C)cnc2c1cc(Cl)c1ccccc12.Cl (stereo not given) | 400 mg/kg | Non-toxic | Active | 12.9 | 6.9 |  |  |  | 
2 | CCCCN(CCCC)CC(O)c1c(C)cnc2c1ccc1cccc(Cl)c12.Cl (stereo not given) | 200 mg/kg | Non-toxic |  | 6.2 | 1.2 | 8.2 |  |  | 
3 | CCCCN(CCCC)CC(O)c1cc(-c2ccc(C)cc2C)nc2c1cc(Cl)c1ccccc12.Cl (stereo not given) |  | Non-toxic | Active |  | 9 |  | Active |  | 
4 | CCCCN(CCCC)CC(O)c1cc(-c2ccc(C)cc2C)nc2c1ccc1ccccc12.Cl (stereo not given) | 300 mg/kg | Non-toxic |  | 4.6 | 4.2 | 5.6 |  |  | 
5 | C=C[C@H]1CN2CC[C@H]1C[C@H]2[C@H](O)c1cc(-c2ccccc2)nc2ccc(OC)cc12 | 10 mg/kg | Non-toxic | Active |  | 5.8 |  |  |  | 
6 | CCCCN(CCCC)CC(O)c1cc(C(C)(C)C)nc2c1ccc1ccccc12.O=C(O)C(=O)O (stereo not given) | 100 mg/kg | Toxic |  | 1.2 |  | 10.2 |  |  | 
7 | C=C[C@H]1CN2CC[C@H]1C[C@H]2[C@H](O)c1ccnc2ccc(OC)cc12 [QUININE] | Not Active | Non-toxic |  |  | 0.6 | 4.8 |  |  | 
8 | CCCCN(CCCC)CC(O)c1cc(-c2cc(OC)c(OC)c(OC)c2)nc2c1cc(Cl)c1ccccc12.Cl (stereo not given) | 80 mg/kg |  |  |  |  |  | Active | Active | Non-toxic
9 | CCCCN(CCCC)CC(O)c1c(C)cnc2c1ccc1ccccc12.Cl (stereo not given) | Not Active | Non-toxic |  | 2.9 | 0.9 | 5.3 |  |  | 
10 | CCCCN(CCCC)CC(O)c1cc(C(C)(C)C)nc2c1cc(C)c1ccccc12.O=C(O)C(=O)O (stereo not given) | 300 mg/kg | Non-toxic |  | 3.5 | 2.7 | 5.9 |  |  | 
11 | CCCCN(CCCC)CC(O)c1cc(C(C)(C)C)nc2c1cc(Cl)c1ccccc12.O=C(O)C(=O)O (stereo not given) | 100 mg/kg | Non-toxic | Active |  | 2.2 |  | Active |  | 
